Test results taken from patent publication US9814696B2, “Use of coumarin derivatives for the preparation of drugs for treating skin diseases” (UNIVERSITE PIERRE ET MARIE CURIE (PARIS 6), priority 2011, dated 2017).

Key:
Type in all cases: biochemical
KLK7 = KLK7 (Homo sapiens, UniProt P49862); test: KLK7 enzyme inhibition assay, fluorogenic substrate Suc-Leu-Leu-Val-Tyr-AMC; conditions: for IC50: Table A, read-out: IC50 (μM) KLK7; for selective activity against enzyme: KLK7: Table B, among KLK5, KLK7 and KLK14
Description: (§1) Kallikreins KLK5, KLK7 and KLK14 activities were determined by monitoring the hydrolysis of the appropriate fluorogenic substrate (λexc=355, λem=460 nm) for 15 min at 37° C. in the presence of the untreated kallikrein (control) or kallikrein that had been incubated with a test compound. Substrate and compounds were previously dissolved in DMSO, with the final solvent concentration kept constant at 2% (v/v) (KLK 5 and 14), and 4% (v/v) (KLK7). The composition of the activity buffers (pH 8.0) was 100 mM Tris-HCl, 150 mM NaCl, 0.01% (v/v) Tween 20 for the KLK5 assay, and 100 mM Tris-HCl, 1M NaCl, 0.01% (v/v) Tween 20 in the KLK 7 and 14 assays. The final concentrations were 0.6 nM (KLK5) and 100 μM (Boc-Val-Pro-Arg-AMC) (KLK5 assay), 8 nM (KLK7) and 40 μM (Suc-Leu-Leu-Val-Tyr-AMC, AMC: 7-amino-4-methyl-coumarin) (KLK7 assay), and 0.17 nM (KLK14) and 10 μM (Boc-Val-Pro-Arg-AMC) (KLK14 assay). Using the appropriate substrate, the coumarinic compounds (0.01-100 μM) were tested in duplicate for each inhibitor concentration to detect their inhibitory potential. The enzyme and the inhibitors were incubated for 15 min before the determination of the enzyme activity. Initial rates determined in control experiments (V0) were considered to be 100% of the peptidase activity; initial rates below 100% were considered to be inhibitions. The inhibitory activity of compounds was expressed as IC50 (inhibitor concentrations giving 50% inhibition). The values of IC50 were calculated by fitting the experimental data to the equation: % Inhibition=100×(1−Vi/V0)=100[I]0/(IC50+[I]0), or equation: % Inhibition=100[I]0^nH/(IC50^nH+[I]0^nH),nH is the Hill number.
(§2) The tests were realized at 37° C. after 15 min of incubation at pH 8.

KLK14 = biological target: T1, KLK14 (Homo sapiens, UniProt Q9P0G3); test: KLK14 enzyme inhibition assay, fluorogenic substrate Boc-Val-Pro-Arg-AMC; conditions: for inhibition at 100 µM / inhibition at 50 µM / IC50: 37° C., 15 min of incubation, pH 8; for selective activity against enzyme: KLK14: Table B, among KLK5, KLK7 and KLK14; for IC50: Table A, read-out: IC50 (μM) KLK14
T1 sequence (Q9P0G3 25-251): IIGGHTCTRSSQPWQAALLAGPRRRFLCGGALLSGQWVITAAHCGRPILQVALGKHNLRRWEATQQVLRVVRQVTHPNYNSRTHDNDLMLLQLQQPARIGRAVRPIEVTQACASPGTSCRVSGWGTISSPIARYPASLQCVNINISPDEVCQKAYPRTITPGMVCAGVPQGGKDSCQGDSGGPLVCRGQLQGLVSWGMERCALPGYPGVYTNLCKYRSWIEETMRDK
Description: as §1, §2

KLK5 = biological target: T2, KLK5 (Homo sapiens, UniProt Q9Y337); test: KLK5 enzyme inhibition assay, fluorogenic substrate Boc-Val-Pro-Arg-AMC; conditions: for IC50: Table A, read-out: IC50 (μM) KLK5; for IC50 / inhibition at 50 µM / inhibition at 100 µM: 37° C., 15 min of incubation, pH 8
T2 sequence (Q9Y337 23-293): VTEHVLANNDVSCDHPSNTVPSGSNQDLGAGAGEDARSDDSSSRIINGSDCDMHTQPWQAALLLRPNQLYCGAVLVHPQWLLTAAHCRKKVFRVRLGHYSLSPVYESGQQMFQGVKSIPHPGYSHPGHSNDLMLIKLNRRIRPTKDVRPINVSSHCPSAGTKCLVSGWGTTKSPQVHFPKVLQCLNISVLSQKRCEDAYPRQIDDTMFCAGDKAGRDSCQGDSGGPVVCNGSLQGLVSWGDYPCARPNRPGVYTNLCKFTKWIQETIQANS
Description: as §1, §2

[1] = 37° C., 15 min of incubation, pH 8

Sequence of KLK7 (P49862 30-253): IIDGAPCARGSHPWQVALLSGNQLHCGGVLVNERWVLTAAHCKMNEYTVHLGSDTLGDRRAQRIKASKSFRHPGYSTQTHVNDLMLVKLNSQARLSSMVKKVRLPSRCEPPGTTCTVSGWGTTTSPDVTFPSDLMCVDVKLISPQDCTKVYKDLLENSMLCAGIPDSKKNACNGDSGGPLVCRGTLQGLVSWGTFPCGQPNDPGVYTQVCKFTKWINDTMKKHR

## COC(=O)c1ccc(OC(=O)c2cc3cc(CCl)ccc3oc2=O)cc1 [IK13]
KLK7; [1]
  inhibition at 100 µM: 34%
KLK14
  inhibition at 100 µM: 72%
  selective activity against enzyme: KLK14: KLK14

## CC(=O)OCc1ccc2oc(=O)c(C(=O)Oc3cc(F)ccc3Br)cc2c1 [CFL17]
KLK7; [1]
  inhibition at 100 µM: 33%
KLK14
  inhibition at 50 µM: 50%
  selective activity against enzyme: KLK14: KLK14

## COC(=O)c1cc2cc(CCl)ccc2oc1=O [MFS2]
KLK7; [1]
  IC50: 26.8 ± 1.5 µM
KLK5
  IC50: 54 ± 2 µM
KLK14
  IC50: 73 ± 14 µM

## NCc1ccc2oc(=O)c(C(=O)Oc3cccc(Br)c3)cc2c1 [IK48]
KLK7; [1]
  IC50: 9.7 ± 1.3 µM
KLK5
  inhibition at 50 µM: 27%
KLK14
  inhibition at 50 µM: 32%

## CCOC(=O)c1cc2cc(CCl)ccc2oc1=O [MFS3]
KLK7; [1]
  IC50: 20.9 ± 0.9 µM
KLK5
  inhibition at 50 µM: 39%
KLK14
  inhibition at 100 µM: 48%

## O=C(Oc1ccc(I)cc1)c1cc2cc(CCl)ccc2oc1=O [LP16]
KLK7; [1]
  inhibition at 50 µM: 47%

## CC(=O)OCc1ccc2oc(=O)c(C(=O)Oc3ccccc3C#N)cc2c1 [SMB33, 2-cyanophenyl 6-acetoxymethyl-2-oxo-2H-1-benzopyran-3-carboxylate]
KLK14
  inhibition at 50 µM: 27%
  selective activity against enzyme: KLK14: KLK14

## O=C(Oc1ccccc1)c1cc2cc(O)ccc2oc1=O [MH8]
KLK7; [1]
  inhibition at 50 µM: 25%
KLK7
  selective activity against enzyme: KLK7: KLK7

## O=C(O)c1ccc(Cl)cc1OC(=O)c1cc2cc(CCl)ccc2oc1=O [IK5]
KLK7; [1]
  IC50: 5.8 ± 0.2 µM
KLK5
  IC50: 36.9 ± 4.2 µM
KLK14
  IC50: 89 ± 10 µM

## O=C(Oc1ccccc1Cl)c1cc2cc(CCl)ccc2oc1=O [MFS36]
KLK7; [1]
  IC50: 0.209 ± 0.006 µM
KLK7
  selective activity against enzyme: KLK7: KLK7
KLK5
  inhibition at 100 µM: 50%
KLK14
  inhibition at 100 µM: 100%

## O=C(Oc1ccccc1Cl)c1cc2cc(O)ccc2oc1=O [MH14]
KLK7; [1]
  inhibition at 50 µM: 35%
KLK7
  selective activity against enzyme: KLK7: KLK7

## Cc1ccc2oc(=O)c(C(=O)Oc3cc(F)ccc3[N+](=O)[O-])cc2c1 [CFL25]
KLK5
  IC50: 44 ± 10 µM
KLK14
  IC50: 68 ± 9 µM

## CC(=O)OCc1ccc2oc(=O)c(C(=O)Oc3cc(Cl)ccc3Cl)cc2c1 [CFL4]
KLK7; [1]
  IC50: 5.01 ± 0.4 µM
KLK14
  inhibition at 50 µM: 60%

## CC(=O)OCc1ccc2oc(=O)c(C(=O)Oc3cccc(Cl)c3)cc2c1 [LP46]
KLK5
  inhibition at 50 µM: 31%
KLK14
  IC50: 31 ± 6 µM

## O=C(Oc1cc(Cl)ccc1Cl)c1cc2cc(CCl)ccc2oc1=O [LP74]
KLK7; [1]
  IC50: 0.195 ± 0.024 µM
KLK7
  selective activity against enzyme: KLK7: KLK7
KLK5
  IC50: 1.3 ± 0.2 µM
KLK14
  IC50: 54 ± 6 µM

## O=C(Oc1cccc(F)c1)c1cc2cc(CCl)ccc2oc1=O [LP51]
KLK7; [1]
  IC50: 0.25 ± 0.01 µM
KLK7
  selective activity against enzyme: KLK7: KLK7
KLK5
  inhibition at 50 µM: 26%
KLK14
  inhibition at 100 µM: 30%

## Cc1cc(OC(=O)c2cc3cc(CCl)ccc3oc2=O)ccc1Cl [MFS35]
KLK7; [1]
  inhibition at 100 µM: 55%
KLK14
  inhibition at 100 µM: 71%
  selective activity against enzyme: KLK14: KLK14

## CC(=O)OCc1ccc2oc(=O)c(C(=O)Oc3ccccc3Cl)cc2c1 [SMB27]
KLK7; [1]
  inhibition at 50 µM: 42%
KLK14
  inhibition at 50 µM: 27%

## O=C(Oc1cc(F)ccc1[N+](=O)[O-])c1cc2cc(CCl)ccc2oc1=O [CFL16]
KLK7; [1]
  IC50: 0.9 ± 0.4 µM
KLK5
  inhibition at 100 µM: 40%
KLK14
  inhibition at 100 µM: 73%

## O=C(Oc1cccc(Cl)c1)c1cc2cc(CCl)ccc2oc1=O [LP8]
KLK7; [1]
  IC50: 0.103 ± 0.005 µM
KLK7
  selective activity against enzyme: KLK7: KLK7
KLK5
  inhibition at 100 µM: 49%
KLK14
  inhibition at 100 µM: 40%

## CC(=O)NCc1ccc2oc(=O)c(C(=O)Oc3ccc(Br)cc3)cc2c1 [MH52]
KLK7; 10 μM, 37° C., 15 min of incubation, pH 8
  inhibition at 10 µM: 58%
KLK7
  selective activity against enzyme: KLK7: KLK7

## CC(=O)OCc1ccc2oc(=O)c(C(=O)Oc3cccc(Br)c3)cc2c1 [IK9]
KLK5
  inhibition at 50 µM: 22%
KLK5; Table B, among KLK5, KLK7 and KLK14
  selective activity against enzyme: KLK5: KLK5

## CCC(=O)OCc1ccc2oc(=O)c(C(=O)Oc3cncc(Cl)c3)cc2c1 [LP42]
KLK7; [1]
  inhibition at 100 µM: 52%
KLK7
  selective activity against enzyme: KLK7: KLK7
KLK5
  inhibition at 50 µM: 22%
